PubChem BioAssay AID2060335 (Molecular Pharmacology Branch, DTP, NCI, 2025)
Where “and” joins values, the source holds several entries; their conditions need not be identical. Equal values may be shown once.

Tested on: DU-145 multicell spheroids with HUVEC/MSC, viability
Experiment: Anticancer human tumor DU-145 cell line growth inhibition [IpAb];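 further: spheroids exposed to agents for seven days before measurement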;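 on viability, T/C: percent of DMSO vehicle control viability so 100% = untreated level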
Conditions: for viability, T/C: stronger effect = lower value
Method in brief: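 Multi-cell spheroids of 60% tumour cells, 25% HUVEC and 15% MSC in ultra-low-attachment U-bottom wells, treated with agents combined with ipatasertib or abemaciclib. Half-log ranges top out near clinical Cmax, or 10 microM when Cmax is unknown.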

[1] = curve of first compound, second compound 0.01 µM
[2] = curve of first compound, second compound 0.0316 µM
[3] = curve of first compound, second compound 0.1 µM
[4] = curve of first compound, second compound 0.316 µM
[5] = curve of first compound, second compound 1 µM
[6] = second compound 0.01 µM, first compound 0.0316 µM
[7] = second compound 0.01 µM, first compound 0.1 µM
[8] = second compound 0.01 µM, first compound 0.316 µM
[9] = second compound 0.01 µM, first compound 1 µM
[10] = second compound 0.01 µM, first compound 3.16 µM
[11] = second compound 0.01 µM, first compound 10 µM
[12] = second compound 0.0316 µM, first compound 0.0316 µM
[13] = second compound 0.0316 µM, first compound 0.1 µM
[14] = second compound 0.0316 µM, first compound 0.316 µM
[15] = second compound 0.0316 µM, first compound 1 µM
[16] = second compound 0.0316 µM, first compound 3.16 µM
[17] = second compound 0.0316 µM, first compound 10 µM
[18] = second compound 0.1 µM, first compound 0.0316 µM
[19] = second compound 0.1 µM, first compound 0.1 µM
[20] = second compound 0.1 µM, first compound 0.316 µM
[21] = second compound 0.1 µM, first compound 1 µM
[22] = second compound 0.1 µM, first compound 3.16 µM
[23] = second compound 0.1 µM, first compound 10 µM
[24] = second compound 0.316 µM, first compound 0.0316 µM
[25] = second compound 0.316 µM, first compound 0.1 µM
[26] = second compound 0.316 µM, first compound 0.316 µM
[27] = second compound 0.316 µM, first compound 1 µM
[28] = second compound 0.316 µM, first compound 3.16 µM
[29] = second compound 0.316 µM, first compound 10 µM
[30] = second compound 1 µM, first compound 0.0316 µM
[31] = second compound 1 µM, first compound 0.1 µM
[32] = second compound 1 µM, first compound 0.316 µM
[33] = second compound 1 µM, first compound 1 µM
[34] = second compound 1 µM, first compound 3.16 µM
[35] = second compound 1 µM, first compound 10 µM

Cn1ncnc1[C@H]1c2n[nH]c(=O)c3cc(F)cc(c23)N[C@@H]1c1ccc(F)cc1
viability, T/C (compound 0.000316 µM): 109% and 101% | viability, T/C (compound 0.001 µM): 105% and 99.7% | viability, T/C (compound 0.00316 µM): 97.9% and 92.2% | viability, T/C (compound 0.01 µM): 99.3% and 96.5% | viability, T/C (compound 0.0316 µM): 95.1% and 97.6% | viability, T/C (compound 0.1 µM): 92.9% and 80.5% | IC50 (curve of compound): > 0.1 µM

CCCS(=O)(=O)Nc1ccc(F)c(C(=O)c2c[nH]c3ncc(-c4ccc(Cl)cc4)cc23)c1F + CCN1CCN(Cc2ccc(Nc3ncc(F)c(-c4cc(F)c5nc(C)n(C(C)C)c5c4)n3)nc2)CC1
IC50 [1]: > 10 µM | IC50 [2]: > 10 µM | IC50 [3]: > 10 µM | IC50 [4]: > 10 µM | IC50 [5]: > 10 µM | viability, T/C [6]: 107% | viability, T/C [7]: 107% | viability, T/C [8]: 102% | viability, T/C [9]: 115% | viability, T/C [10]: 106% | viability, T/C [11]: 79.8% | viability, T/C [12]: 101% | viability, T/C [13]: 107% | viability, T/C [14]: 105% | viability, T/C [15]: 115% | viability, T/C [16]: 106% | viability, T/C [17]: 72.4% | viability, T/C [18]: 95.8% | viability, T/C [19]: 95.5% | viability, T/C [20]: 99.3% | viability, T/C [21]: 107% | viability, T/C [22]: 98.3% | viability, T/C [23]: 65.9% | viability, T/C [24]: 80.3% | viability, T/C [25]: 84.9% | viability, T/C [26]: 87.1% | viability, T/C [27]: 88.6% | viability, T/C [28]: 89.4% | viability, T/C [29]: 52.4% | viability, T/C [30]: 70.1% | viability, T/C [31]: 66.9% | viability, T/C [32]: 67% | viability, T/C [33]: 64.6% | viability, T/C [34]: 69.9% | viability, T/C [35]: 54.8%

CC(C)NCC(C(=O)N1CCN(c2ncnc3c2C(C)CC3O)CC1)c1ccc(Cl)cc1 (configuration not stated)
viability, T/C (compound 0.1 µM): 81.1% [middle of 13 runs] | viability, T/C (compound 0.316 µM): 53.8% [middle of 13 runs] | viability, T/C (compound 1 µM): 30.9% [middle of 13 runs] | viability, T/C (compound 3.16 µM): 21.7% [middle of 13 runs] | viability, T/C (compound 10 µM): 17.5% [middle of 13 runs] | IC50 (compound alone, run of 06/01/2021): 381 nM [middle of 13 runs]

COc1c(OCCCN2CCOCC2)ccc2c3n(c(=NC(=O)c4cnc(N)nc4)nc12)CCN3
viability, T/C (compound 0.00316 µM): 78.7% and 83.3% | viability, T/C (compound 0.01 µM): 49.7% and 48.7% | viability, T/C (compound 0.0316 µM): 27.3% and 28.9% | viability, T/C (compound 0.1 µM): 15.9% and 14.9% | viability, T/C (compound 0.316 µM): 10.9% and 10.1% | viability, T/C (compound 1 µM): 11% and 11.2% | IC50 (curve of compound): 0.00992 µM and 0.00981 µM

Cn1nccc1Nc1nccc(-c2ccn(C(CO)c3ccc(Cl)c(F)c3)c(=O)c2)n1 (configuration not stated) + CCN1CCN(Cc2ccc(Nc3ncc(F)c(-c4cc(F)c5nc(C)n(C(C)C)c5c4)n3)nc2)CC1
IC50 [1]: > 10 µM | IC50 [2]: 7.22 µM | IC50 [3]: > 10 µM | IC50 [4]: > 10 µM | IC50 [5]: > 10 µM | viability, T/C [6]: 86.9% | viability, T/C [7]: 68.4% | viability, T/C [8]: 71% | viability, T/C [9]: 85.6% | viability, T/C [10]: 103% | viability, T/C [11]: 82.1% | viability, T/C [12]: 85.4% | viability, T/C [13]: 64.7% | viability, T/C [14]: 69.8% | viability, T/C [15]: 82.5% | viability, T/C [16]: 105% | viability, T/C [17]: 37.7% | viability, T/C [18]: 65.2% | viability, T/C [19]: 60.4% | viability, T/C [20]: 63.5% | viability, T/C [21]: 75.1% | viability, T/C [22]: 92.6% | viability, T/C [23]: 53.6% | viability, T/C [24]: 67.1% | viability, T/C [25]: 60.7% | viability, T/C [26]: 61.9% | viability, T/C [27]: 77% | viability, T/C [28]: 79.1% | viability, T/C [29]: 54.8% | viability, T/C [30]: 66.4% | viability, T/C [31]: 68.2% | viability, T/C [32]: 61.5% | viability, T/C [33]: 73.5% | viability, T/C [34]: 90.2% | viability, T/C [35]: 64.3%

Cc1nc(NC(=O)N2CCCC2C(N)=O)sc1-c1ccnc(C(C)(C)C(F)(F)F)c1 (configuration not stated)
viability, T/C (compound 0.0316 µM): 81% and 75.7% | viability, T/C (compound 0.1 µM): 60.6% and 54.3% | viability, T/C (compound 0.316 µM): 39.9% and 37.3% | viability, T/C (compound 1 µM): 29% and 31.4% | viability, T/C (compound 3.16 µM): 21.7% and 20.9% | viability, T/C (compound 10 µM): 8.51% and 8.2% | IC50 (curve of compound): 0.192 µM and 0.16 µM
